Test system: IL-6
Assay: Inhibition of IL-6 in LPS-stimulated human monocyte cells (THP-1), HTRF
Assay type: cell-based
Details: THP-1 cells; for EC50: Homo sapiens, LPS 500 ng/mL, IL-6 by HTRF; for percent inhibition of IL-6 at 10 μM: LPS-stimulated, dose-response starting from 10 μM
Procedure: Human Monocyte Cell Culture: A human monocyte cell line (THP-1 cells; Catalog #TIB-202, ATCC, Manassas, Va.) was cultured in Roswell Park Memorial Institute (RPMI) 1640 Medium (Catalog #21870-100, Buffalo, N.Y.) with 1% L-glutamine, 1% HEPES, 1% sodium pyruvate, 2% sodium bicarbonate supplemented with 100 units/mL penicillin, 50 μg/mL streptomycin, 2-mercaptoethanol (0.05 mM) [basal medium] and 10% fetal bovine serum (Catalog #16140089, Life Technologies, Carlsbad, Calif.) at 37° C. and 5% CO2.
Compound Screening: THP-1 cells were cultured in basal media with 1% FBS for 24 hours before the start of the assay. Each compound of Formula (I) was dissolved in DMSO as a 10 mM stock and used to prepare compound source plates. Serial dilution (1:3, 10-point dose-response curves starting from 10 μM) and compound transfer was performed using the ECHO 550 (Labcyte, Sunnyvale, Calif.) into 384-well white low volume assay plates (Greiner Bio-One) with appropriate DMSO backfill for a final DMSO concentration of 0.1%. THP-1 cells were plated at 5000 cells/well in the 384-well plates and incubated at 37° C. for 2 h. 500 ng/mL of LPS was added after 2 hours and cells were incubated for another 22 hours at 37° C. Plates were spun in a centrifuge for 1 minute at 10,000 rpm and a mixture of anti-IL-6 XL665, and anti-IL-6 Cryptate diluted in reconstitution buffer (Cisbio Inc.) was added to each well. Following incubation for 3 hrs at room temperature, homogeneous time-resolved fluorescence (HTRF) was measured using the Envision (Perkin Elmer) at 665 nm and […]. The ratio of fluorescence at 665 nm to 620 nm was used as a readout for IL-6 quantification. All samples were processed in duplicate. Readings were normalized to DMSO treated cells and normalized activities were utilized for EC50 calculations using the dose-response log (inhibitor) vs. response -variable slope (four parameters) nonlinear regression feature available in GraphPad Prism 5.0 (or Dotmatics). For EC50 of >10 μM, the percent inhibition at 10 μM is provided.

| SMILES | EC50 | percent inhibition of IL-6 at 10 μM |
| --- | --- | --- |
| c1cc(-c2cncc3[nH]c(-c4n[nH]c5ccc(-c6cncc(CNCC7CCCC7)c6)cc45)nc23)ccn1 [Compound 173] | > 10000 nM | (11.7%) |
| Fc1cccc(-c2cncc3[nH]c(-c4n[nH]c5ccc(-c6cccnc6)cc45)nc23)c1 [Compound 15] | 23 nM | – |
| CN(C)Cc1cncc(-c2ccc3[nH]nc(-c4nc5c(N6CCN(C)CC6)cncc5[nH]4)c3c2)c1 [Compound 3] | 273 nM | – |
| c1ncc(-c2ccc3[nH]nc(-c4nc5c(N6CCCCC6)cncc5[nH]4)c3c2)cc1CN1CCCC1 [Compound 211] | 311 nM | – |
| Cc1ccncc1-c1ccc2[nH]nc(-c3nc4c(-c5ccncc5)cncc4[nH]3)c2c1 [Compound 154] | 188 nM | – |
| FC1(F)CCN(Cc2cncc(-c3ccc4[nH]nc(-c5nc6c(-c7ccsc7)cncc6[nH]5)c4c3)c2)C1 [Compound 346] | 37 nM | – |
| c1ccc(-c2cncc3[nH]c(-c4n[nH]c5ccc(-c6cccnc6)cc45)nc23)nc1 [Compound 177] | 30 nM | – |
| Cc1ccncc1-c1ccc2[nH]nc(-c3nc4c(-c5ccsc5)cncc4[nH]3)c2c1 [Compound 293] | 58 nM | – |
| FC1(F)CCN(Cc2cncc(-c3ccc4[nH]nc(-c5nc6c(N7CCCCC7)cncc6[nH]5)c4c3)c2)C1 [Compound 342] | 109 nM | – |
| CN1CCN(c2cncc3[nH]c(-c4n[nH]c5ccc(-c6cncc(N7CCOCC7)c6)cc45)nc23)CC1 [Compound 5] | 349 nM | – |
| CN(C)Cc1cncc(-c2ccc3[nH]nc(-c4nc5c(-c6ccccn6)cncc5[nH]4)c3c2)c1 [Compound 186] | 1180 nM | – |
| c1cc(-c2cncc3[nH]c(-c4n[nH]c5ccc(-c6cncc(CN7CCCCC7)c6)cc45)nc23)cs1 [Compound 303] | 1010 nM | – |
| CN1CCN(c2cncc3[nH]c(-c4n[nH]c5ccc(-c6cncc(NC(=O)Cc7ccccc7)c6)cc45)nc23)CC1 [Compound 252] | 750 nM | – |
| Nc1cncc(-c2ccc3[nH]nc(-c4nc5c(-c6ccc(F)cc6)cncc5[nH]4)c3c2)c1 [Compound 97] | 122 nM | – |
| Fc1ccc(-c2cncc3[nH]c(-c4n[nH]c5ccc(-c6cncc(CN7CCCC7)c6)cc45)nc23)cc1 [Compound 107] | 75 nM | – |
| CN1CCN(c2cncc3[nH]c(-c4n[nH]c5ccc(-c6cncc(N)c6)cc45)nc23)CC1 [Compound 247] | 474 nM | – |
| Cc1ccncc1-c1ccc2[nH]nc(-c3nc4c(-c5ccc(F)cc5)cncc4[nH]3)c2c1 [Compound 99] | 40 nM | – |
| c1cc(-c2cncc3[nH]c(-c4n[nH]c5ccc(-c6cncc(CNCC7CCCC7)c6)cc45)nc23)cs1 [Compound 311] | 216 nM | – |
| FC1(F)CCN(Cc2cncc(-c3ccc4[nH]nc(-c5nc6c(-c7cccnc7)cncc6[nH]5)c4c3)c2)C1 [Compound 339] | 97 nM | – |
| c1cc(-c2cncc3[nH]c(-c4n[nH]c5ccc(-c6cncc(CN7CCCC7)c6)cc45)nc23)ccn1 [Compound 163] | > 10000 nM | (30.0%) |

Further lines, with some results ahead:

| EC50 | SMILES | percent inhibition of IL-6 at 10 μM |
| --- | --- | --- |
| 34 nM | CC(C)CC(=O)Nc1cncc(-c2ccc3[nH]nc(-c4nc5c(-c6cc(F)cc(CNS(C)(=O)=O)c6)cncc5[nH]4)c3c2)c1 [Compound 373] | – |
| 295 nM | CN1CCN(c2cncc3[nH]c(-c4n[nH]c5ccc(-c6cncc(NC(=O)C7CC7)c6)cc45)nc23)CC1 [Compound 260] | – |
| 42 nM | CC(C)(C)CC(=O)Nc1cncc(-c2ccc3[nH]nc(-c4nc5c(-c6cccc(F)c6)cncc5[nH]4)c3c2)c1 [Compound 90] | – |
| > 10000 nM | Nc1cncc(-c2ccc3[nH]nc(-c4nc5ccncc5[nH]4)c3c2)c1 [Compound 268] | (27.6%) |
| 827 nM | O=C(Nc1cncc(-c2ccc3[nH]nc(-c4nc5ccncc5[nH]4)c3c2)c1)C1CCCCC1 [Compound 286] | – |
| 34 nM | CC(C)CC(=O)Nc1cncc(-c2ccc3[nH]nc(-c4nc5c(-c6cc(F)cc(NCCN(C)C)c6)cncc5[nH]4)c3c2)c1 [Compound 349] | – |
| 53 nM | CC(C)(C)C(=O)Nc1cncc(-c2ccc3[nH]nc(-c4nc5c(-c6ccc(F)cc6)cncc5[nH]4)c3c2)c1 [Compound 102] | – |
| 103 nM | O=C(Nc1cncc(-c2ccc3[nH]nc(-c4nc5c(-c6ccoc6)cncc5[nH]4)c3c2)c1)C1CCCCC1 [Compound 333] | – |
| 15 nM | CCC(=O)Nc1cncc(-c2ccc3[nH]nc(-c4nc5c(-c6cncc(F)c6)cncc5[nH]4)c3c2)c1 [Compound 20] | – |
| 33 nM | CC(C)CC(=O)Nc1cncc(-c2ccc3[nH]nc(-c4nc5c(-c6ccccc6F)cncc5[nH]4)c3c2)c1 [Compound 11] | – |
| 103 nM | CC(C)CC(=O)Nc1cncc(-c2ccc3[nH]nc(-c4nc5c(N6CCCCC6)cncc5[nH]4)c3c2)c1 [Compound 199] | – |
| 97 nM | CN1CCN(c2cncc3[nH]c(-c4n[nH]c5ccc(-c6cncc(NC(=O)CC(C)(C)C)c6)cc45)nc23)CC1 [Compound 257] | – |
| 4690 nM | O=C(Nc1cncc(-c2ccc3[nH]nc(-c4nc5c(-c6ccncc6)cncc5[nH]4)c3c2)c1)C1CCCC1 [Compound 170] | – |
| 45 nM | CC(C)CC(=O)Nc1cncc(-c2ccc3[nH]nc(-c4nc5c(-c6ccc(F)cc6)cncc5[nH]4)c3c2)c1 [Compound 12] | – |
| > 10000 nM | O=C(Cc1ccccc1)Nc1cncc(-c2ccc3[nH]nc(-c4nc5ccncc5[nH]4)c3c2)c1 [Compound 274] | (24.1%) |
| 78 nM | CC(C)(C)C(=O)Nc1cncc(-c2ccc3[nH]nc(-c4nc5c(-c6ccoc6)cncc5[nH]4)c3c2)c1 [Compound 319] | – |
| 2260 nM | CC(C)C(=O)Nc1cncc(-c2ccc3[nH]nc(-c4nc5ccncc5[nH]4)c3c2)c1 [Compound 9] | – |
| 59 nM | CCCC(=O)Nc1cncc(-c2ccc3[nH]nc(-c4nc5c(N6CCCCC6)cncc5[nH]4)c3c2)c1 [Compound 214] | – |
| 47 nM | CC(C)Nc1cncc(-c2ccc3[nH]nc(-c4nc5c(-c6ccccc6F)cncc5[nH]4)c3c2)c1 [Compound 124] | – |
| > 10000 nM | O=C(Nc1cncc(-c2ccc3[nH]nc(-c4nc5ccncc5[nH]4)c3c2)c1)c1ccccc1 [Compound 275] | (9.9%) |
| 19 nM | O=C(Nc1cncc(-c2ccc3[nH]nc(-c4nc5c(-c6cccc(F)c6)cncc5[nH]4)c3c2)c1)C1CC1 [Compound 91] | – |
| 290 nM | CC(C)C(=O)Nc1cncc(-c2ccc3[nH]nc(-c4nc5c(N6CCN(C)CC6)cncc5[nH]4)c3c2)c1 [Compound 2] | – |
| 5870 nM | O=C(Nc1cncc(-c2ccc3[nH]nc(-c4nc5c(-c6ccoc6)cncc5[nH]4)c3c2)c1)C1CC1 [Compound 330] | – |
| > 10000 nM | O=C(Nc1cncc(-c2ccc3[nH]nc(-c4nc5ccncc5[nH]4)c3c2)c1)C1CC1 [Compound 283] | (50.7%) |
| 731 nM | CC(C)(C)CC(=O)Nc1cncc(-c2ccc3[nH]nc(-c4nc5ccncc5[nH]4)c3c2)c1 [Compound 280] | – |
| 14 nM | O=C(Nc1cncc(-c2ccc3[nH]nc(-c4nc5c(N6CCCCC6)cncc5[nH]4)c3c2)c1)C1CCC1 [Compound 217] | – |

— patent publication US11667632B2, “2-(1H-indazol-3-yl)-3H-imidazo[4,5-C]pyridines and their anti-inflammatory uses thereof” (BioSplice Therapeutics, Inc., priority 2015, dated 2023)
